Measurements published in patent publication EP4810492A1, “NMT INHIBITOR, PREPARATION METHOD THEREFOR, AND USE THEREOF” (Nanjing Synnocare Pharmaceutical Technology Co., Ltd., priority 2023, dated 2025).
Read-outs that look alike come from different tables or passages of the source.

Key:
[1] = Plasma concentrations in mice following oral administration; details: for concentration at 1 h / concentration at 4 h / concentration at 8 h: ICR, mouse, po, 10 mg/kg
Source text: This study evaluated the plasma concentrations of the compounds of the present invention in mice. ICR mice were procured from JOINN Laboratories (Suzhou) Co., Ltd. At the initiation of dosing, the animals were 6-8 weeks old and weighed 18-25 g. Mice were housed in transparent plastic cages (400 mm*240 mm*200 mm). The animal facility maintained a 12-hour light/12-hour dark cycle (lights on 07:00-19:00) using fluorescent lighting. The dark period may be intermittently interrupted as required for study-related activities. Ambient temperature and relative humidity were controlled within 20-26 °C and 40-70%, respectively. Animals were fed certified rodent chow and provided with drinking water filtered and sterilized through an ultrapure water system. All animals had ad libitum access to water throughout the study. Animals were fasted for at least 12 hours prior to dosing, and food was restored 4 hours post-dosing.
Prior to dosing, body weights were recorded, and healthy animals with similar weights were selected and randomly assigned to groups (n = 3 per group) based on body weight. The compounds were formulated in a 0.5% aqueous carboxymethyl cellulose (CMC) solution and administered orally at a single dose of 10 mg/kg. Blood samples (≥0.2 mL) were collected via venipuncture at 1 h and 4 h post-dose into EDTA-K2 anticoagulant tubes. Tubes were gently inverted to mix, immediately placed in an ice-water bath, and rapidly centrifuged at 4,000 rpm for 10 min at 4 °C to separate plasma. Plasma was stored at -70 °C until analysis.
Calibration curve and QC plasma samples: Working solutions for the calibration curve and QC samples were prepared using 80% methanol in water (Thermo Fisher) as the diluent. To prepare plasma calibration standards and QC samples, 5 µL of each working solution was added to 45 µL of blank plasma and mixed. To the prepared calibration and QC samples, 300 µL of internal standard solution (tolbutamide at 8 µg/mL in acetonitrile, Thermo Fisher) was added. […] The supernatant was collected and analyzed by liquid chromatography-tandem mass spectrometry (LC-MS/MS; AB Sciex API 5000).
Plasma sample pretreatment: After thawing at room temperature, 50 µL of each plasma sample was mixed with 300 µL of the internal standard solution (tolbutamide at 8 µg/mL in acetonitrile, Thermo Fisher). […] The supernatant was collected and analyzed by LC-MS/MS (AB Sciex API 5000).
Raw chromatograms, concentrations, and accuracy data were generated using Analyst software version 1.6.3.

MV-4-11 cells = assay: Anti-proliferative activity against MV-4-11 cells (cell viability chemiluminescence); assay type: cell-based; details: MV4-11, 72 h, MV-4-11 human monocytic leukemia cells, three days of exposure
Experimental: This study utilized a cell proliferation assay to analyze the cytotoxicity of MV-4-11 human monocytic leukemia cells after three days of exposure to NMT1 inhibitors. The MV-4-11 cell line was purchased from Nanjing Cobuilder Biotechnology Co., Ltd., and cultured in IMDM medium (Viva cell) in an incubator (Thermo) at 37 °C with 5% CO2. In this experiment, NMT1 inhibitors were dissolved in DMSO to obtain 600 µM stock solutions. Dose-response solutions were prepared with a top endpoint compound concentration of 3 µM, followed by three-fold serial dilutions in DMSO, totaling eight data points. The final concentration of DMSO was 0.5%.
MV-4-11 cells were seeded into a white 96-well plate, 80 µL of cell suspension per well, containing 6000 MV-4-11 cells. The cell plate was placed in the CO2 incubator for overnight culture. Then, 20 µL of NMT1 inhibitor solutions at different concentrations were added to the wells. The 96-well plate was placed back into the incubator for three days. Another cell plate was prepared, and the signal was read on the day of drug addition to serve as the maximum value (Max value in the equation below) for data analysis. To this cell plate, 25 µL of cell viability chemiluminescence detection reagent was added per well, followed by incubation at room temperature for 10 minutes to stabilize the luminescence signal. A multi-label analyzer was used for reading.
The raw data were converted into inhibition rates using the equation (Sample - Min) / (Max - Min) * 100%. The IC50 values were then determined by fitting a four-parameter curve (using the "log(inhibitor) vs. response - Variable slope" model in GraphPad Prism). Min: wells treated with 0.5% DMSO; Max: Day 0 wells. Table 1 provides the inhibitory activity of the compounds of the invention on MV-4-11 cell proliferation. Table 1: Compound Inhibitory Activity against NMT1 Enzyme (IC50) and Anti-proliferative Activity against MV-4-11 Cell line (IC50)

[2] = Body weight of MV-4-11 xenograft model mice (tolerability); assay type: in vivo; details: female BALB/c nude mice, PO QD 30 mg/kg; for Body weight: Figure 1
Source text: (§1) To evaluate the effect of the compounds of the present invention on tumor growth, an MV-4-11 human myelomonocytic leukemia xenograft mouse model was established. Female BALB/c nude mice were procured from Shanghai Jihui Laboratory Animal Care Co., Ltd. Upon arrival, the mice were 6-7 weeks old and weighed 18-22 g. They were housed in specific pathogen-free (SPF) individually ventilated cages (IVC) at a density of 2-6 mice per cage, with ad libitum access to standard diet and water. The housing environment was maintained at 20 - 26 °C (68 - 79 °F) with a relative humidity of 40-70%, under a 12-hour light/dark cycle (lights on from 05:00 to 17:00). The study commenced after a one-week acclimatization period.
(§2) Human myelomonocytic leukemia MV-4-11 cells (ATCC, CRL-9591) were maintained in suspension culture using IMDM medium (Gibco, 12440-053) supplemented with 10% heat-inactivated fetal bovine serum (FBS; Gibco, 10099-141C) at 37 °C in a 5% CO2 atmosphere. Cells were passaged 2-3 times per week. Upon reaching the exponential growth phase, cells were harvested, counted, and inoculated subcutaneously into the right dorsal flank of female nude mice. Each mouse received a 200 µL suspension containing 8 × 10^6 MV-4-11 cells (100 µL cell suspension + 100 µL Matrigel basement membrane matrix, Corning, 354234). Thirteen days post-inoculation, when subcutaneous tumor volumes reached 100 - 300 mm^3 , tumor-bearing mice with appropriate morphology and uniform size were selected. Using stratified randomization, mice were assigned to experimental groups (n = 5 per group). Oral administration (PO, once daily [QD]) was initiated on the day of grouping, with all compounds of the present invention dosed at 30 mg/kg. During the dosing period, tumor diameters were measured twice weekly using digital calipers, and body weights were recorded. In the posttreatment observation period, tumor diameters and body weights were measured once weekly. Tumor volume (V) was calculated using the formula: V = 0.5 *a * b^2 , where a represents the long diameter and b represents the short diameter of the tumor.
(§3) The anti-tumor efficacy of the compounds was evaluated using the tumor growth inhibition percentage (TGI%), calculated by the formula: TGI(%) = [1 - (TVi - TV0) / (TVVi - TVV0)] *100%, where TV0 and TVV0 represent the mean tumor volumes on day 0 for the treatment and control groups, respectively, and TVi and TVVi represent the mean tumor volumes on day i for the treatment and control groups, respectively. Data were plotted using GraphPad Prism software. Tumor volume and body weight data are expressed as mean ± SEM and plotted as a function of time.

MV-4-11 tumors = assay: In vivo anti-tumor efficacy in MV-4-11 xenograft mouse model; details: female BALB/c nude mice, PO QD 30 mg/kg, Figure 2
Source text: as §1, §2, §3

NMT1 enzyme = molecular target: T1, NMT1 enzyme (Homo sapiens, UniProt P30419); assay: Inhibitory activity on NMT1 enzyme catalysis (fluorescence intensity assay); assay type: biochemical
T1 sequence (P30419 1-496): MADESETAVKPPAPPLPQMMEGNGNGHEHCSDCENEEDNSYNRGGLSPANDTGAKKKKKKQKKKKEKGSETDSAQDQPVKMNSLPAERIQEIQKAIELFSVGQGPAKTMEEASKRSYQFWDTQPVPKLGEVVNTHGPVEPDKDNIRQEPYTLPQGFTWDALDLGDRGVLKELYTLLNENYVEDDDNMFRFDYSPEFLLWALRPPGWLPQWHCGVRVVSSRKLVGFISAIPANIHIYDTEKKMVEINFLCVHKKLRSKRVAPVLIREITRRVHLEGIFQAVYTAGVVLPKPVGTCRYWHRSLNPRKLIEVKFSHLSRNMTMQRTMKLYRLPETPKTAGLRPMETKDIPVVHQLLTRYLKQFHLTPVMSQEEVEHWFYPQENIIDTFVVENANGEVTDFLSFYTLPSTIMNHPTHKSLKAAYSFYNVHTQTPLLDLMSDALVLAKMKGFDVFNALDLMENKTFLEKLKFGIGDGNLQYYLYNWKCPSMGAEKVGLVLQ
Experimental: This study evaluated the ability of the compounds of the invention to inhibit NMT1 catalytic activity in vitro. […] The final concentration of the NMT1 enzyme was 6 nM, the final concentration of CPM (Reactive thiol fluorescence probe, Invitrogen, D346) was 1 µM, the final concentration of HSPP60 SRC was 20 µM, and the final concentration of DMSO was 0.5%.
Compounds were dissolved in DMSO to obtain 10 mM stock solutions. Dose-response solutions were prepared with a top endpoint compound concentration of 3 mM, followed by three-fold serial dilutions in DMSO, totaling ten data points. […] Then, 2.5 µL of the NMT1 enzyme working solution was added to the 384-well assay plate, followed by incubation at 25 °C for 10 minutes. Subsequently, 5 µL of the CPM and myristoyl-CoA working solution was added, the plate was centrifuged at 1000 rpm for 1 minute, and then 2.5 µL of the HSPP60 SRC working solution was added to initiate the reaction. The reaction was incubated at 25 °C for 45 minutes.
The IC50 curve of the compounds was fitted using the software XLfit 5.5.0 according to the nonlinear regression equation.

[3] = 6 nM NMT1 enzyme, 1.25 µM myristoyl-CoA, 20 µM HSPP60 SRC peptide, 45 minutes at 25 °C, read-out: NMT1 (IC50)

concentration at 1 h [1] [ng/mL]	concentration at 4 h [1] [ng/mL]	concentration at 8 h [1] [ng/mL]	IC50 (MV-4-11 cells) [nM]	IC50 (NMT1 enzyme; [3]) [nM]	SMILES	Body weight [2]	Tumor volume / growth of MV-4-11 tumors (MV-4-11 tumors)	1 h Concentration ([1]; ICR mice, oral single dose of 10 mg/kg in 0.5% CMC, 1 h post-dose, Mean ± SEM, n = 3) [ng/mL]	4 h Concentration ([1]; ICR mice, oral single dose of 10 mg/kg in 0.5% CMC, 4 h post-dose, Mean ± SEM, n = 3) [ng/mL]	8 h Concentration ([1]; ICR mice, oral single dose of 10 mg/kg in 0.5% CMC, 8 h post-dose, Mean ± SEM, n = 3) [ng/mL]	IC50 (MV-4-11 cells; Homo sapiens) [nM]	IC50 (NMT1 enzyme) [nM]	Weight loss ([2]; later phase) [%]
2407 ± 21	1980 ± 417	1140 ± 551	15	3.45	Cc1c(NS(=O)(=O)c2c(Cl)cc(-c3ccc4sc5c(c4c3)CNCC5)cc2Cl)c(CC(C)C)nn1C [Compound 3]	no weight loss throughout the study	significantly inhibited the growth of MV-4-11 tumors and induced tumor regression						
					Cc1c(NS(=O)(=O)c2c(Cl)cc(-c3ccc4sc5c(c4c3)CNCC5)cc2Cl)c(CC#N)nn1C [Compound 13]	no weight loss throughout the study	significantly inhibited the growth of MV-4-11 tumors and induced tumor regression	1893 ± 196	623 ± 109	334 ± 83	19.3	3.21	
2970 ± 855	3260 ± 876	1960 ± 467	43.7	5.38	Cc1c(NS(=O)(=O)c2c(Cl)cc(-c3ccc4oc5c(c4c3)CNCC5)cc2Cl)c(CC(C)C)nn1C [Compound 45]	slight weight loss in the later phase	significantly inhibited the growth of MV-4-11 tumors and induced tumor regression						≤ 10
2890 ± 858	1960 ± 190	915 ± 97	5.43	3.09	CCc1nn(C)c(C)c1NS(=O)(=O)c1c(Cl)cc(-c2ccc3sc4c(c3c2)CNCC4)cc1Cl [Compound 2]	slight decrease in body weight during the early phase of dosing, which subsequently returned to normal	significantly inhibited the growth of MV-4-11 tumors and induced tumor regression						
